Test results from the NIST ThermoML archive (doi:10.1021/je800742d).
± gives the expanded uncertainty stated by the source.

Details: Crystal; visual observation

## CN1CCN(c2cc3c(cc2F)c(=O)c(C(=O)O)cn3-c2ccc(F)cc2)CC1 [difloxacin]
  Normal melting temperature: 278.00 ± 0.5 °C
